Laboratory results from patent publication US12433954B2, “Methods of activating anti-CD19 chimeric antigen receptor (CAR) T cells using amphiphilic ligand conjugates comprising CAR-targeting protein sequence motifs” (Massachusetts Institute of Technology, priority 2020, dated 2025).
Bridge positions count the residues as written; N and C are the ends. Ends that are not written are not given here. Peptide text beside a SMILES is read from it. * marks the point of attachment. Biotin = O=C1N[C@H]2[C@H](CS[C@H]2CCCCC(=O)*)N1

What was measured:
FMC63 IgG = experiment: ELISA of N-terminally biotinylated F12 variants on streptavidin plate, binding to FMC63 IgG; set-up: species or system mouse; settings: read-out: Kd (nM), FMC63 binding affinity of F12 variants with N-terminal flanking residues
[1] = Micelle stability of lipid-oligonucleotide conjugates in presence of serum; format: physicochemical; settings: for percentage of intact micelles: micelles formed in aqueous solution, in the presence of serum (FBS); for micelle stability on increasing number of guanines: in the presence of serum, compared with lipo-G6T4-CG
Protocol: For example, in certain embodiments, a plurality of lipid conjugates is allowed to spontaneously form micelles in aqueous solution. The micelles are incubated with albumin, or a solution including albumin such as Fetal Bovine Serum (FBS). Samples can be analyzed, for example, by ELISA, size exclusion chromatography or other methods to determine if binding has occurred. Lipid conjugates can be selected as lymph node-targeting conjugates if in the presence of albumin, or a solution including albumin such as Fetal Bovine Serum (FBS), the micelles dissociate and the lipid conjugates bind to albumin as discussed above.
In certain embodiments, the linker is one or more guanines, for example between 1-10 guanines. It has been discovered that altering the number of guanines between a cargo such as a CpG oligonucleotide, and a lipid tail controls micelle stability in the presence of serum proteins. Therefore, the number of guanines in the linker can be selected based on the desired affinity of the conjugate for serum proteins such as albumin. When the cargo is a CpG immunostimulatory oligonucleotide and the lipid tail is a diacyl lipid, the number of guanines affects the ability of micelles formed in aqueous solution to dissociate in the presence of serum: 20% of the non-stabilized micelles (lipo-G0T10-CG) (SEQ ID NO: 138) were intact, while the remaining 80% were disrupted and bonded with FBS components.

FMC63 IgG antibody = experiment: Alanine scanning mutagenesis, flow cytometry binding to FMC63 IgG; set-up: species or system mouse; settings: yeast stained with 5 μM FMC63 IgG antibody
Sequence of FMC63 IgG antibody (as listed by the source): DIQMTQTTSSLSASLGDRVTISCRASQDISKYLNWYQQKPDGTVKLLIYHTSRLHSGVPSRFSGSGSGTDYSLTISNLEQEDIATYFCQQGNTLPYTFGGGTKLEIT
Sequence of FMC63 IgG antibody (as listed by the source): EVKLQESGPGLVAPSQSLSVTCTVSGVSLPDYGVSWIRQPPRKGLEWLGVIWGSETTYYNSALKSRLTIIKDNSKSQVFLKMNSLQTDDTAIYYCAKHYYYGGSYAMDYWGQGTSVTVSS
Protocol: FIG. 11 provides a graph showing flow cytometry analysis of alanine scanning mutagenesis for […] (SEQ ID NO: 16) where each amino acid position was mutated to an alanine, or additional alanine residues (one or two) were added. Flow cytometry analysis was performed to evaluate binding to the FMC63 IgG antibody.
To determine the effect of amino acid position on binding to FMC63, an alanine mutagenesis experiment was performed were each amino acid was mutated to alanine and binding to FMC63 was assessed. Specifically, a representative mimotope, […] (SEQ ID NO: 16), was mutated at each amino acid position to generate an alanine (SEQ ID NOs: 54-63) (Table 7). To assess the tolerance of additional alanine residues, one alanine or two alanine residues were inserted between the two cysteine residues (SEQ ID NOs: 52 and 53) to determine the impact the loop structure had on mimotope binding to FMC63. To generate mutations, two complementary oligos with the codon replaced at the desired site were denatured at 95° C. and annealed by slow cooling to 25° C. (decreasing by 0.5° C./second). The annealed oligos were treated with T4 PNK (T4 Polynucleotide Kinase) to add a terminal phosphate, and then ligated into digested pCT-CON2 vector. Positive clones having the correct oligo inserted were tested and transformed into competent EBY100 yeast cells. […]

[2] = tested on: FMC63 anti-hCD19 CAR-T cells; experiment: IFNγ secretion of CAR-T cells co-cultured with amph-mimotope coated K562 cells (ELISA); format: cell-based; settings: K562 coated with 10 μM amph-mimotope, E:T 10:1, 24 hours; compared to amphiphile only control
Protocol: ID NO: 5) at 10 μM and incubated at 37° C. for 30 minutes. The labeling reaction was stopped by pelleting cells and washing with PBS. To mimic antigen presenting cells in lymph nodes, K562 cells were decorated with amph-mimotope, and then co-cultured at an effector to target (E:T) ratio of 10:1 with FMC63 expressing CAR-T cells (hCD19-CAR; SEQ ID NO: 78) for 24 hours. The hCD19-CAR was generated in part from a previously reported CAR (Pegram, H., et al. (2012) Blood 119:18 (4133-4141) and is composed of a human CD8 signal peptide (SEQ ID NO: 87), FMC63 scFV (SEQ ID NO: 70), murine CD8 hinge (SEQ ID NO: 74), a murine CD8 transmembrane domain (SEQ ID NO: 75), a murine CD28 costimulatory domain (SEQ ID NO: 76) and a murine CD3ζ intracellular domain (SEQ ID NO: 77). The overall CAR is provided in SEQ ID NO: 78. After co-culture, cells were pelleted at 2,000×g for 5 minutes, and the supernatant was harvested for IFNγ ELISA and processed following the manufacturer's protocol (Human IFNγ ELISA MAXTM Deluxe (Biolegend)).

FMC63 scFv = experiment: Dissociation kinetics of FMC63 scFv from yeast clones (flow cytometry); format: binding, mouse; settings: yeast clones labeled, washed, incubated 0-72 hours
Sequence of FMC63 scFv (as listed by the source): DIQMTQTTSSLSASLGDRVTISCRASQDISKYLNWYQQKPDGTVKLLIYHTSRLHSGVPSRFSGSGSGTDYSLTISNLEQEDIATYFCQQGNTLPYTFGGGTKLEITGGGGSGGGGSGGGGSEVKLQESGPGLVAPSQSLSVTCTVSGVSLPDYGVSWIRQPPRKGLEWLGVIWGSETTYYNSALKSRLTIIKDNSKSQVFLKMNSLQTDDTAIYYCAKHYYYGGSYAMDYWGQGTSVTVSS
Protocol: The yeast clones were labeled with the scFv, washed, and incubated for 0-72 hours as indicated prior to analysis.
The dissociation kinetics following binding of the mimotopes to FMC63 were also investigated. […] The yeast were then washed, and incubated for 0-72 hours prior to analysis of the degree of FMC63 scFv labeling by flow cytometry.

FMC63 = FMC63 binding of mimotope-expressing yeast after DTT treatment (flow cytometry); set-up: species or system mouse; settings: DTT 0.01-10 mM, 30 minutes, room temperature; yeast-displayed
Protocol: To determine the formation of an intra-peptidyl disulfide bridge formed by the two Cys residues, mimotope expressing yeast were treated in reducing conditions and binding of the mimotope to FMC63 IgG was measured. […] Similarly, control cells expressing Aga2p (connected to the yeast surface by disulfide bridge) were treated with DTT. Following treatment, cells were labelled with biotinylated Aga2p or FMC63 and binding was measured by flow cytometry. At mild reducing conditions, Aga2p was maintained on the yeast surface while mimotope binding to FMC63 was abolished (FIG. 6). The inhibition of mimotope binding to FMC63 following treatment with a reducing agent reaffirms the formation of the disulfide bond and its importance for binding.

FMC63 CAR T cells = experiment: In vivo CAR T cell proliferation in lymph nodes after amph-mimotope vaccination (cell trace violet dilution); set-up: species or system mice; settings: inguinal LNs 48 hours post-vaccination; s.c. tail base with 25 μg cyclic-di-GMP; 10 ug monovalent or 20 ug bivalent
Protocol: FIG. 18A depicts a timeline for administration of CD45.1+ donor FMC63 CAR T cells to CD45.2+ recipient mice on Day 0, followed by administration of amph-mimotope or bivalent amph-mimotope on Day 1, and analysis of CAR T cell proliferation in lymph nodes harvested on Day 3 measured by cell trace violet dilution.
FIG. 18B provides histograms measuring the proliferation of FMC63 CAR T cells isolated from mice on Day 3 as depicted in FIG. 18A. The mice were administered amph-mimotope containing a mimotope with the sequence set forth in SEQ ID NO: 128 or 129 (Amph-K-A1 or Amph-K-C2 respectively) or the bivalent mimotopes depicted in FIG. 17C (amph-bi-F12-peg8 or amph-bi-F12-peg4). Control mice were administered no amph-mimotope.
CD45.1^+ donor FMC63 CAR T cells were prepared as described in Example 3 and labeled with cell trace violet according to manufacturer's protocol. 2×10^6 CAR T cells were administered into CD45.2^+ recipient mice via tail vein injection on Day 0. The following day, recipient mice were vaccinated by subcutaneous injection at the tail base with the following vaccine formulation: • (i) 10 ug of monovalent amph-mimotope (Amph-K-A1 or Amph-K-C2)+25 μg of cyclic-di-GMP in 1×PBS; or • (ii) 20 ug of amph-Bi-F12-mimotope (PEG4 or PEG8)+25 μg of cyclic-di-GMP in 1×PBS. […]

CC[C@H](C)[C@H](NC(=O)[C@H](CCCNC(=N)N)NC(=O)[C@H](CO)NC(=O)[C@H](C)NC(=O)[C@H](CO)NC(=O)CCCC[C@@H]1SC[C@@H]2NC(=O)N[C@@H]21)C(=O)N[C@H]1CSSC[C@@H](C(=O)N[C@@H](CCCCN)C(=O)N[C@@H](CCC(=O)O)C(=O)N[C@@H](CC(C)C)C(=O)O)NC(=O)[C@H](CC(N)=O)NC(=O)[C@H](Cc2c[nH]c3ccccc23)NC(=O)[C@@H]2CCCN2C1=O [SEQ ID NO: 95] (Biotin-SASRICPWNCKEL-OH; disulfide 6-10)
Kd (FMC63 IgG): 0.147 nM

lipo-G6T4-CG (DNA GGGGGGTTTTCG; DNA, backbone and methylation of C not given here; lipid conjugate)
percentage of intact micelles [1]: 90%

RLCPWSAACREL (Synthetic FMC63 Mimotope Mutant) [SEQ ID NO: 52]
mimotope binding to FMC63 of RLCPWSCREL variants (FMC63 IgG antibody): abolished

lipo-G8T2-CG (DNA GGGGGGGGTTCG; DNA, backbone and methylation of C not given here; lipid conjugate)
micelle stability on increasing number of guanines [1]: did not further enhance micelle stability

amph-mimotope (RHCPWNCSLL; SEQ ID NO: 5) (cysteine pairing not given here; also: amphiphilic lipid tail conjugated, site not given here)
CAR-T cell activation measured by IFNγ secretion [2]: significantly activated

RLCPWSACREL (Synthetic FMC63 Mimotope Mutant) [SEQ ID NO: 53]
mimotope binding to FMC63 of RLCPWSCREL variants (FMC63 IgG antibody): abolished

K-A1 (PRKHSGRICPWNCKELDNPPFIFGNR; Synthetic FMC63 mimotope (A1))
time for which FMC63 scFv labeling is retained after wash (FMC63 scFv): ≥ 72 h

CC[C@H](C)[C@H](NC(=O)[C@H](CCCNC(=N)N)NC(=O)[C@H](CO)NC(=O)[C@H](C)NC(=O)[C@H](CO)NC(=O)CNC(=O)CNC(=O)CNC(=O)CCCC[C@@H]1SC[C@@H]2NC(=O)N[C@@H]21)C(=O)N[C@H]1CSSC[C@@H](C(=O)N[C@@H](CCCCN)C(=O)N[C@@H](CCC(=O)O)C(=O)N[C@@H](CC(C)C)C(=O)O)NC(=O)[C@H](CC(N)=O)NC(=O)[C@H](Cc2c[nH]c3ccccc23)NC(=O)[C@@H]2CCCN2C1=O [SEQ ID NO: 96] (Biotin-GGGSASRICPWNCKEL-OH; disulfide 9-13)
Kd (FMC63 IgG): 0.141 nM

lipo-G0T10-CG (DNA TTTTTTTTTTCG; DNA, backbone and methylation of C not given here; lipid conjugate)
percentage of intact micelles [1]: 20%

RHCPWNCSLL [Clone A1]
mimotope binding to FMC63 after DTT (FMC63): abolished

Amph-K-C2 (GGGSASRICPWNCKELPSPPRIFGNR; cysteine pairing not given here; also: amphiphile lipid conjugate, site not given here)
proliferation of CAR T cells in vivo (cell violet dilution) (FMC63 CAR T cells): observed

lipo-G10T0-CG (DNA GGGGGGGGGGCG; DNA, backbone and methylation of C not given here; lipid conjugate)
micelle stability on increasing number of guanines [1]: did not further enhance micelle stability

lipo-G4T6-CG (DNA GGGGTTTTTTCG; DNA, backbone and methylation of C not given here; lipid conjugate)
percentage of intact micelles [1]: 73%

lipo-G2T8-CG (DNA GGTTTTTTTTCG; DNA, backbone and methylation of C not given here; lipid conjugate)
percentage of intact micelles [1]: 36%
